Measurements taken from ChEMBL document CHEMBL1128853, “Zn(II)-chelating inhibitors of carboxypeptidase A” (Bioorg Med Chem Lett, 1995).

Experiment: Binding affinity against Carboxypeptidase A

Row | SMILES | Ki
1 | O=C(NC(Cc1ccccc1)C(=O)O)c1ccccn1 (stereo unspecified) | 370 µM
2 | O=C(NC(Cc1ccccc1)C(=O)O)c1cnccn1 (stereo unspecified) | 180 µM
3 | CCCSCC(Cc1ccccc1)C(=O)O (stereo unspecified) | 340 µM
4 | NC(=O)C(CSCCS)Cc1ccccc1 (stereo unspecified) | 29 µM
5 | O=C(O)C(Cc1ccccc1)SCCS (stereo unspecified) | 21 µM
6 | O=C(O)C(Cc1ccccc1)(Cc1ccccc1)SCCSc1ccccc1 | 450 µM
7 | O=C(O)C(CSCCS)Cc1ccccc1 (stereo unspecified) | 4.2 µM
8 | O=C(O)c1cccc(C(=O)NC(Cc2ccccc2)C(=O)O)n1 (stereo unspecified) | 790 µM
9 | O=C(Nc1ccccc1)C(CSCCS)Cc1ccccc1 (stereo unspecified) | 34 µM
10 | O=C(O)C(CSCCSCc1ccccc1)Cc1ccccc1 (stereo unspecified) | 660 µM
11 | O=C(CC(Cc1ccccc1)C(=O)O)c1ccccn1 (stereo unspecified) | 82 µM
12 | O=C(CC/C(=N\O)c1ccccn1)NC(Cc1ccccc1)C(=O)O (stereo unspecified) | > 300 µM

More lines, now with the values ahead:

Row | Ki | SMILES
13 | 19 µM | O=C(O)CC(CSCCS)Cc1ccccc1 (stereo unspecified)
14 | 620 µM | CCCCCC(Cc1ccccc1)C(=O)O (stereo unspecified)
15 | 92 µM | NC(=O)C(CCSCCS)Cc1ccccc1 (stereo unspecified)
16 | 45 µM | O=C(O)C(CCCCS)Cc1ccccc1 (stereo unspecified)
17 | 4.4 µM | O=C(CC(Cc1ccccc1)C(=O)O)c1ccccc1S (stereo unspecified)
18 | 670 µM | O=C(O)C(Cc1ccccc1)SCCSc1ccccc1 (stereo unspecified)
19 | > 300 µM | O=C(O)C(C/C(=N\O)c1ccccn1)Cc1ccccc1 (stereo unspecified)
20 | 580 µM | O=C(O)C(Cc1ccccc1)NC/C(=N\O)c1ccccn1 (stereo unspecified)
21 | 5.8 µM | O=C(O)C(CCc1ccccc1S)Cc1ccccc1 (stereo unspecified)
